{"source": "patent US10335380B2", "about": "“Compounds suitable for the treatment of myeloproliferative neoplasms as well as methods for the diagnosis/prognosis of myeloproliferative neoplasms” (CNIC Fundacion Centro Nacional De investigaciones …, priority 2013, dated 2019)", "key": {"[1]": {"test_system": "WT mice transplanted with control BM cells", "test": "In vivo treatment of WT mice transplanted with control BM cells (normal haematopoiesis)", "set-up": "species or system mouse", "experimental": "Age-matched, female wild-type C57BL/6J or Nes-gfp mice were used as recipients in bone marrow (BM) transplantation assays and for in vivo pharmacological treatments. Lethally irradiated (12 Gy) recipient mice were transplanted with 2×10^6 BM cells from Mx-Cre;JAK2V617F mice induced with plpC 8 weeks before, or from Cre-negative mice as disease-free controls. […] Vehicle (saline solution) daily injections were performed in the same way. Unless indicated, treatment was initiated 4 weeks posttransplant, when animals evidenced peripheral blood signs of MPN. Mice were randomly distributed prior to treatment initiation, and disease development was monitored over time in peripheral blood samples, using an automated blood counter. […] Mice were sacrificed at different time points and subjected to complete necropsy; BM and spleen were analysed by histology and flow cytometry; femora and skull were used for immunostainings, and haematopoietic and stromal cells were additionally used for functional assays ex vivo.\nBM cell extraction, flow cytometry and fluorescence-activated cell sorting For haematopoietic cell recovery, bones were crushed in a mortar, filtered through a 40-μm mesh to obtain single cell suspensions, and depleted of red blood cells by lysis in 0.15 M NH4Cl for 10 min at 4° C. […] Biotinylated antibodies were detected with fluorochrome-conjugated streptavidin (BD Biosciences). […]"}, "[2]": {"test_system": "CD45+ haematopoietic cells from BM of Nes-gfp;Mx1-cre;JAK2-V617F mice and control littermates", "test": "Colony-forming units in culture (CFU-C) with drug added in vitro", "assay_type": "cell-based, mouse", "details": "scored after one week in culture", "experimental": "Colony-forming units in culture (CFU-C) assay was performed. […] Colonies of more than 50 cells were scored after 7 days of incubation at 37° C., 5% CO2, 20% O2 in a water-jacketed incubator. For CFU-F assays, BM CD45− Ter119− cells were plated into 6-well dishes and cultured in maintenance medium (α-MEM, 15% FCS with antibiotics). After 10-12 days in culture, adherent cells were fixed with 100% methanol and stained with Giemsa stain (Sigma) to reveal fibroblastic clusters. Colonies with more than 50 cells were scored as CFU-F."}, "[3]": {"test_system": "HSCs and MPN-initiating cells", "test": "Competitive repopulation assays using limiting cell dilutions", "assay_type": "in vivo", "experimental": "For quantification of HSC, BM cells from treated mice were used for competitive repopulation assays using limiting cell dilutions. Briefly, CD45.1+ competitor BM cells […] were transplanted into lethally irradiated CD45.2+ recipient mice, after mix with […] and 4×10^3 donor BM cells. Peripheral blood chimerism was assessed by flow cytometry every 2-4 weeks. Mice were sacrificed 16 weeks after the transplant and the BM LSK cell chimerism was assessed by flow cytometry. A minimum of 5% CD45.2+ chimerism in the LSK cell compartment was considered as positive in recipients of control BM cells. In recipients of mutant BM, mice were considered as positive (“leukaemic”) above 50% CD45.2+ chimerism. The software LCalc (StemCell Technologies) was used for quantification of HSCs and MPN-initiating cells in control and mutant donor BM, respectively."}, "[4]": {"test_system": "Nes-creERT2;iDTA mice depleted in nestin+ cells", "test": "BRL37344 treatment of Nes-creERT2;iDTA mice depleted in nestin+ cells, transplanted with MPN BM cells", "assay_type": "in vivo, mouse", "details": "BRL37344 for 6 weeks", "experimental": "Age-matched, female wild-type C57BL/6J or Nes-gfp mice were used as recipients in bone marrow (BM) transplantation assays and for in vivo pharmacological treatments. […] Vehicle (saline solution) daily injections were performed in the same way. Unless indicated, treatment was initiated 4 weeks posttransplant, when animals evidenced peripheral blood signs of MPN. Mice were randomly distributed prior to treatment initiation, and disease development was monitored over time in peripheral blood samples, using an automated blood counter. […] The neuroprotective drug 4-methylcatechol (10 μg kg-1, i.p.) was injected once daily. The JAK inhibitor INCB018424 (S-Ruxilitinib, Abmole Bioscience) was administered by oral gavage (30 mg kg-1, twice per day separated 10-12 hours) in 0.5% hydroxypropylmethylcellulose (Sigma) after solubilisation in DMSO. The IL-1 receptor antagonist (Kineret, Sobi, Stockholm, Sweden) was administered by subcutaneous osmotic pumps (Alzet) infusing a continuous dosing of 40 mg kg-1 per day. Mice were sacrificed at different time points and subjected to complete necropsy; BM and spleen were analysed by histology and flow cytometry; femora and skull were used for immunostainings, and haematopoietic and stromal cells were additionally used for functional assays ex vivo."}, "β1 receptors": {"molecular_target": "β1 receptors (Homo sapiens, UniProt P08588)", "sequence (P08588 whole entry)": "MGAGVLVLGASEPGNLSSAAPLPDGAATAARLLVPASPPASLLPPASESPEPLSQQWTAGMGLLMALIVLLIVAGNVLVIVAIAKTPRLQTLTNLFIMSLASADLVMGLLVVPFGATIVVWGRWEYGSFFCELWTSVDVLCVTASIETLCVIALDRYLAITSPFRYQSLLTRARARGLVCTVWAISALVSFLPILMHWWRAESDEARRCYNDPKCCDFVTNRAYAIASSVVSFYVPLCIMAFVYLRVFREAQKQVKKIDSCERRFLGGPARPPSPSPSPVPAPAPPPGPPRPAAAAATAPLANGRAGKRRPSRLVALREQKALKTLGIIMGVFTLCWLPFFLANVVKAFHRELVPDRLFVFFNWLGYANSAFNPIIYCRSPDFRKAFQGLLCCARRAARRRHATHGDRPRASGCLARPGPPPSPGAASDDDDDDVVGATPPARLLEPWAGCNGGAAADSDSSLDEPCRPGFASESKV", "details": "read-out: Ki for β1 receptors; cited from earlier work"}, "β2 receptors": {"molecular_target": "β2 receptors (Homo sapiens, UniProt P07550)", "sequence (P07550 whole entry)": "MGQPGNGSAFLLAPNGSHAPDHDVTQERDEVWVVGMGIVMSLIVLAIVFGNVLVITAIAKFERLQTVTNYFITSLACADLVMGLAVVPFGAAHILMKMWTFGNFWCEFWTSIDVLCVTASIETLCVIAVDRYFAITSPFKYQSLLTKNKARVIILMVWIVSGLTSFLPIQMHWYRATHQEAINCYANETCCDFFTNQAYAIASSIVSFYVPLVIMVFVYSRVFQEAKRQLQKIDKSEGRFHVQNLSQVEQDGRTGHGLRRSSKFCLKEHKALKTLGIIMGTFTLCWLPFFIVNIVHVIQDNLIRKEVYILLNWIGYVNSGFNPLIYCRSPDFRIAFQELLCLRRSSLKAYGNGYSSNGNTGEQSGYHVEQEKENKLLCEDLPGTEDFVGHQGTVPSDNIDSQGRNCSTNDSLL", "details": "read-out: Ki for β2 receptors; cited from earlier work"}}, "note": "“Also recorded” adds a separate entry of the source."}
{"smiles": "C[C@H](Cc1ccc(OCC(=O)O)cc1)NC[C@H](O)c1cccc(Cl)c1", "note": "[BRL37344, [4-[(2R)-2-[[(2R)-2-(3-clorophenyl)-2-hydroxyethyl]amino]propyl]phenoxy]acetic acid]", "values": [{"measurement": "blood counts in wild-type mice", "setting": "[1]; BRL37344 2 mg kg-1 i.p. twice a day", "value": "did not affect"}, {"measurement": "normal HSCs / normal haematopoiesis", "setting": "[1]; long-term BRL37344 treatment, 16 weeks, 2 mg kg-1 twice a day i.p.", "value": "did not compromise; also recorded: does not compromise"}, {"measurement": "growth of cultured haematopoietic progenitors (CFU-C)", "setting": "[2]", "value": "neither 4-methylcatechol nor BRL37344 affected"}, {"measurement": "reduction in leukemic stem cells (MPN-initiating cell frequency)", "setting": "[3]; BM cells from BRL37344-treated versus vehicle-treated MPN mice, 16 weeks after transplantation", "value": 4.5, "unit": "fold"}, {"measurement": "normal HSC BM number", "setting": "[3]; control mice treated with BRL37344 over 4 weeks, starting 11 weeks after the transplant, non-significant", "value": "does not change"}, {"measurement": "therapeutic effect of BRL37344 after in vivo depletion of nestin+ cells (blood counts)", "setting": "[4]; Nes-creERT2;iDTA versus control mice", "value": "reduces"}, {"measurement": "leukocytosis in mice depleted in nestin+ cells", "setting": "[4]; started 2 weeks after transplantation combined with tamoxifen", "value": "not rescued"}, {"measurement": "Ki", "setting": "β1 receptors", "value": 1750, "unit": "nM"}, {"measurement": "Ki", "setting": "β2 receptors", "value": 1120, "unit": "nM"}]}
